IC50 data for 14 compounds are collected here from patent publication EP2520566A1, “New Pharmaceutical Compounds” (Orion Corporation, priority 2011, dated 2012).

Structures are written as SMILES.

The target of this test is TRPA1 (Homo sapiens, UniProt O75762). As to the kind of experiment: Determination of TRPA1 activity in vitro (TRPA1 antagonism in vitro), procedure of Wei et al., Anesthesiology 111 (2009) 147-154. Type of test: cell-based. From the text: EXPERIMENT 1: Determination of TRPA1 activity in vitro
The illustrative examples of the present invention were screened for TRPA1 activity according to a procedure described in Wei et al., Anesthesiology 111 (2009) 147-154. Table 1. TRPA1 antagonism in vitro.

Sequence of TRPA1 (O75762 whole entry): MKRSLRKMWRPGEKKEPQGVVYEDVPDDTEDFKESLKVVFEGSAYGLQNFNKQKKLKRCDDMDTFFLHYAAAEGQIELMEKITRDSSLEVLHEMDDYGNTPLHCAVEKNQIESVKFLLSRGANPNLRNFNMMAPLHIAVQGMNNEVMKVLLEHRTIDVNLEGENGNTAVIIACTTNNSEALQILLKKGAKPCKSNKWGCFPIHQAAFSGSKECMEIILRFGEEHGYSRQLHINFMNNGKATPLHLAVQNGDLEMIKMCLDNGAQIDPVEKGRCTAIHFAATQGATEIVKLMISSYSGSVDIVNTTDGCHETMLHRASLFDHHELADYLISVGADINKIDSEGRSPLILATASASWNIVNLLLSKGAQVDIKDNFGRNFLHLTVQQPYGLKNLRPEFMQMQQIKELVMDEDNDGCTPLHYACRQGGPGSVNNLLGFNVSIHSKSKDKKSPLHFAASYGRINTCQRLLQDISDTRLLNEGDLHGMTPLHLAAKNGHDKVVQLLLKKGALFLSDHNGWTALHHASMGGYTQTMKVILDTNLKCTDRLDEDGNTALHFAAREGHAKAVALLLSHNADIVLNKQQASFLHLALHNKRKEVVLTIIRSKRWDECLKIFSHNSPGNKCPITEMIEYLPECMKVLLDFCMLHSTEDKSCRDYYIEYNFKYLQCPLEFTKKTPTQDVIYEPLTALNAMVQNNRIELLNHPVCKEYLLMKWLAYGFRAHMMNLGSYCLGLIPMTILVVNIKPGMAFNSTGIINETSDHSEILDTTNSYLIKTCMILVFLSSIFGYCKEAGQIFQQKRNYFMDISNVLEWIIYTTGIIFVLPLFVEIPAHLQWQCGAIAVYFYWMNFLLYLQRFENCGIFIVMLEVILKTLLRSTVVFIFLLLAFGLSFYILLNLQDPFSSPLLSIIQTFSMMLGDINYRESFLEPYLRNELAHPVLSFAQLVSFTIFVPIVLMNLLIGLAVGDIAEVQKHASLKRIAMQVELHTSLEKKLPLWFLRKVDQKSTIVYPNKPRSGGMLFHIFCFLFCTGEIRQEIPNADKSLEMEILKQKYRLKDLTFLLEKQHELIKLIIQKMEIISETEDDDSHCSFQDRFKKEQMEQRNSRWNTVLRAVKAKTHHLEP

As to `CSCCOc1cccc(CNC(=O)[C@@H]2CCCN2S(=O)(=O)c2ccc(F)cc2)c1` [Example 1, (S)-1-(4-Fluorophenylsulfonyl)-N-(3-(2-(methylthio)ethoxy)benzyl) pyrrolidine-2-carboxamide], the IC50 (commonly the concentration at which inhibition is half-maximal) came out at 4 µM.
In the case of `O=C(NCc1cccc(Br)c1)[C@@H]1CCCN1S(=O)(=O)c1ccccc1` [Example 2, (S)-N-(3-bromobenzyl)-1-(phenylsulfonyl)pyrrolidine-2-carboxamide] it was 18.6 µM.
In the case of `CCCC(=O)c1cccc(CNC(=O)[C@@H]2CCCN2S(=O)(=O)c2ccc(F)cc2)c1` [Example 3, (S)-N-(3-butyrylbenzyl)-1-(4-fluorophenylsulfonyl)pyrrolidine-2-carboxamide] it was 10.4 µM; in that of `CC(C)(C)COc1cc(CNC(=O)[C@@H]2C[C@@H](F)CN2S(=O)(=O)c2ccc(F)cc2)ccn1` [Example 4, (2S,4R)-4-Fluoro-1-(4-fluorophenylsulfonyl)-N-((2-(neopentyloxy)pyridin-4-yl)methyl)pyrrolidine-2-carboxamide], 11.3 µM; in that of `CCc1cc(CNC(=O)[C@@H]2CCCN2S(=O)(=O)c2ccc(F)cc2)ccc1C#N` [Example 5, (S)-N-(4-cyano-3-ethylbenzyl)-1-(4-fluorophenylsulfonyl)pyrrolidine-2-carboxamide], 9.8 µM.
For the compound `CCCOc1cccc(CNC(=O)[C@@H]2CCCN2S(=O)(=O)c2ccccc2)c1` [Example 6, (S)-1-(Phenylsulfonyl)-N-(3-propoxybenzyl)pyrrolidine-2-carboxamide], half-maximal inhibition (IC50) required 5.1 µM.
In the case of `O=C(NCc1cc(OCC(F)(F)F)ccn1)[C@@H]1CCCN1S(=O)(=O)c1ccc(F)cc1` [Example 7, (S)-1-(4-Fluorophenylsulfonyl)-N-((4-(2,2,2-trifluoroethoxy)pyridin-2-yl)methyl)pyrrolidine-2-carboxamide] it was 17.3 µM; in that of `O=C(NCc1ccc(C(F)(F)F)cc1)[C@@H]1C[C@@H](F)CN1S(=O)(=O)c1ccc(F)cc1` [Example 8, (2S,4R)-4-Fluoro-1-(4-fluorophenylsulfonyl)-N-(4-(trifluoromethyl)benzyl)pyrrolidine-2-carboxamide], 14.5 µM; in that of `O=C(NCc1ccc(Br)cc1F)[C@@H]1CCCN1S(=O)(=O)c1ccc(F)cc1` [Example 9, (S)-N-(4-bromo-2-fluorobenzyl)-1-(4-fluorophenylsulfonyl)pyrrolidine-2-carboxamide], 5.3 µM.
In the case of `O=C(NCc1ccnc(OCCC(F)(F)F)c1)[C@@H]1CCCN1S(=O)(=O)c1cc(F)cc(F)c1` [Example 10, (S)-1-(3,5-Difluorophenylsulfonyl)-N-((2-(3,3,3-trifluoropropoxy)pyridin-4-yl)methyl)pyrrolidine-2-carboxamide] it was 16.9 µM; in that of `CCCc1cc(CNC(=O)[C@@H]2CCCN2S(=O)(=O)c2ccccc2)ccc1C#N` [Example 11, (S)-N-(4-cyano-3-propylbenzyl)-1-(phenylsulfonyl)pyrrolidine-2-carboxamide], 4.4 µM; in that of `O=C(NCc1ccc(Br)cc1F)[C@@H]1C[C@@H](F)CN1S(=O)(=O)c1ccc(F)cc1` [Example 12, (2S,4R)-N-(4-bromo-2-fluorobenzyl)-4-fluoro-1-(4-fluorophenyl-sulfonyl)pyrrolidine-2-carboxamide], 16.3 µM.
In the case of `O=C(NCc1cc(F)cc(OC(F)F)c1)[C@@H]1CCCN1S(=O)(=O)c1ccc(F)cc1` [Example 13, (S)-N-(3-(difluoromethoxy)-5-fluorobenzyl)-1-(4-fluorophenylsulfonyl) pyrrolidine-2-carboxamide] it was 11.5 µM.
With `O=C(NCc1ccnc(OCCC(F)(F)F)c1)[C@@H]1C[C@@H](F)CN1S(=O)(=O)c1ccc(F)c(F)c1` [Example 14, (2S,4R)-1-(3,4-Difluorophenylsulfonyl)-4-fluoro-N-((2-(3,3,3-trifluoropropoxy)pyridin-4-yl)methyl)pyrrolidine-2-carboxamide], inhibition was half-maximal at 26 µM (IC50).
